Test results taken from patent publication US9440967B2, “1H-pyrrolo [2, 3 -B] pyridine derivatives and their use as radical quenchers” (Arizona Board of Regents on Behalf of Arizona State …, priority 2012, dated 2016).
Counter-ions that a name gives are not always drawn.

Experiments:
[1] = James et al. (2005) J Biol. Chem. 280, 21295-21312; cited from earlier work
CEM cells [2] = assay: Trypan blue cell viability assay of DEM-treated cells; format: cell-based, Human; conditions: CEM cells pretreated 16 h, then 5 mM DEM 5.5 h; FIG. 5
Protocol: FIG. 5. Trypan blue exclusion assay of CEM cells treated with test compounds for 16 h before exposure to 5 mM diethyl maleate for 5.5 h. At the time of assay, >80% of the DEM-treated cells were trypan blue positive, whereas in the non-DEM treated control, >95% of the cells were viable. Cell viability was expressed as the percentage of control. Results are an average of three independents trials. α-TOH is α-tocopherol.
Cell viability determined by trypan blue exclusion assay: This technique was used to assess the cytoprotective effects of the invention compounds in cultured cells pharmacologically treated to induce cell death by GSH depletion. DEM was used to deplete cellular GSH and induce oxidative stress. The viability of DEM-treated CEM cells was determined by their ability to exclude the dye trypan blue. Viable cells exclude trypan blue; whereas, non-viable cells take up the dye and stain blue. Briefly, CEM lymphoblasts (CCL-119) were grown in RPMI 1640 medium (GIBCO, Grand island, NY, USA) supplemented with 10% fetal calf serum, 2 mM glutamine (HyClone, South Logan, Utah, USA), 1% penicillin-streptomycin mix (Cellgro, Manassas, Va., USA). Cells were seeded at a density of 5×10^5 cells/mL and treated with different concentrations of the invention compounds. Cells were incubated at 37° C. in a humidified atmosphere of 5% CO2 in air for 16 hours. After pre-incubation, the cells were treated with 5 mM DEM for 5.5 h. Cell viability was determined by staining cells with 0.4% trypan blue using a hemacytometer. At least 500 cells were counted for each experimental group. At the time of assay, >80% of DEM-treated cells were trypan blue positive; whereas, in non-DEM treated control cell cultures>95% cells were viable. Cell viability was expressed as the percentage of control. Data are expressed as means±S.E.M (n=3).

CEM cells [3] = assay: Reactive oxygen species (ROS) assay, DCFH-DA flow cytometry, glutathione depleted with diethyl maleate; format: cell-based, Human; conditions: CEM cells pretreated 16 h with 1, 2.5 and 5 μM compound, then 5 mM DEM 50 min, FIG. 1; for protection against ROS production (DCF fluorescence): compared with α-tocopherol
Protocol: FIG. 1. Representative flow cytometric histograms overlay showing ROS production in CEM cells. Following pretreatment with the indicated compounds (1, 2.5 and 5 μM) for 16 h, the cells were treated with 5 mM diethyl maleate (DEM) for 50 min to deplete glutathione. The cells were washed in phosphate-buffered saline, and suspended in phosphate-buffered saline containing 20 mM glucose. Cells were loaded with 10 μM dichlorodihydrofluoresceindiacetate (DCFH-DA) for 20 min, and the green fluorescence (DCF) was measured by flow cytometry using the FL1-H channel. […] A total of 10000 events were recorded for each sample and analyzed with the CellQuest software (BD Biosciences). Increased DCF fluorescence, a measure of intracellular oxidation and ROS production, was determined by a shift in DCF fluorescence to the right on the x-axis of the FACS histogram. […] Data are expressed as the mean±SEM (n=3). α-TOH is α-tocopherol.
Cellular ROS production can be monitored using 2′,7′-dichlorodihydrofluorescein diacetate (DCFH-DA) (LeBel et al. (1992) Chem. Res. Toxicol. 5, 227-231) (Molecular Probes, Eugene, Oreg., USA), a membrane permeable and oxidant-sensitive fluorescent dye. DCFH-DA is a non-fluorescent derivative of fluorescein that emits fluorescence after being oxidized by hydrogen peroxide and other ROS. The emitted fluorescence is directly proportional to the concentration of hydrogen peroxide. DCFH-DA is nonionic and nonpolar and is easily taken up by cells. Once inside the cell, DCFH-DA is hydrolyzed by cellular esterases to non-fluorescent DCFH which traps the dye in the cell. In the presence of ROS including hydrogen peroxide, DCFH is oxidized to the highly fluorescent compound dichlorofluorescein (DCF). The intracellular DCF fluorescence is used as an index of cellular ROS production.
Cellular oxidative stress was induced by pharmacological depletion of glutathione (GSH) using the chemical diethylmaleate (DEM). ROS production was assessed by monitoring DCF fluorescence. Leukemic CEM cells (ATCC®, catalogue number CRL-2264) were cultured in RPMI (GIBCO, Grand island, NY, USA) with 10% FCS, 2 mM glutamine (HyClone, South Logan, Utah, USA) and 1% penicillin-streptomycin mix antibiotics (Cellgro, Manassas, Va., USA) supplements. CEM cells (5×10^5 cell/mL) were plated (1 mL) in 24-well plate and treated with the invention compounds (final concentration 1, 2.5, and 5 μM), and incubated at 37° C., 5% CO2 for 16 hours. The compounds tested were prepared by first making stock solutions (2.5 mM) in dimethylsulfoxide (DMSO). Cells were treated with 5 mM DEM for 50 minutes and collected by centrifugation at 300×g for 3 min and then washed twice with Hanks' Balanced Salt Solution (HSSB) buffer (Sigma, St. Louis, Mo. USA). Cells were re-suspended in HSSB buffer+20 mM glucose and incubated at 37° C. in the dark for 20 min with 10 μM DCFH-DA. Cells were collected by centrifugation at 300×g for 3 min and then washed twice with HSSB buffer. The samples were analyzed immediately by flow cytometry (Becton-Dickinson FACS Caliber), (Cell Quest software, BD Biosciences) using 488 nm excitation laser and FL1-H channel 538 nm emission filter. In each analysis, 10,000 events were recorded after cell debris were electronically gated out. Results obtained were verified by repeating experiments N=3 independent experiments. Authentic hydrogen peroxide was used as a positive control.

CEM leukemia cells [4] = assay: Lipid peroxidation, C11-BODIPY581/591 oxidation in cell culture (FACS); format: cell-based, Human; conditions: CEM cells pretreated 16 h with 2.5 and 5 μM compound, then 5 mM DEM 90 min; compared with α-tocopherol; FIG. 2
Protocol: FIG. 2. Comparison of the lipid peroxidation in CEM leukemia cells depleted of glutathione detected by utilizing the oxidation-sensitive fatty acid probe C-11 BODIPY^581/591 using flow cytometry. Increased C-11 BODIPY-green fluorescence (oxidized form), a measure of intracellular lipid peroxidation, was determined by increasing the geometric mean fluorescence intensity (GMFI) of C-11 BODIPY-green relative to the untreated control. A bar graph representing the percentage of the geometric mean fluorescence intensity (GMFI) of C-11 BODIPY-green fluorescence relative to a treated control is shown. Data are expressed as the mean±SEM (n=3). α-TOH is α-tocopherol.
Lipid peroxidation in CEM leukemia cells was detected by utilizing the oxidant-sensitive lipophilic probe C11 BODIPY^581/591. Briefly, CEM cells (5×10^5 cell/mL) were treated with the test compounds at final concentrations of 2.5 and 5 μM, and incubated at 37° C. for 16 h in a humidified atmosphere containing 5% CO2 in air. Cells were treated with 1 μMC11 BODIPY^581/591 in phenol red-free RPMI-1640 media and incubated at 37° C. in the dark for 30 minutes. The cells were washed twice with phosphate buffered saline and oxidative stress was induced with 5 mM DEM in phenol red-free RPMI-1640 media for 90 minutes. Treated cells were collected by centrifugation at 300×g for 3 minutes and then washed twice with phosphate buffered saline. Cells were re-suspended in 250 μL of phosphate buffered saline and were analyzed by FACS (FACS Calibur flow cytometer, Becton Dickinson) to monitor the change in intensity of the C11 BODIPY^581/591-green (oxidized) fluorescence signal. A total of 10000 events were recorded for each sample and analyzed with the CellQuest software (BD Biosciences). The results were verified by repeating the experiments in duplicate. Results are expressed as the relative percentage of treated control (DEM).

CEM leukemia cells [5] = assay: Mitochondrial membrane potential (Δψm) assay, TMRM staining (FACS); format: cell-based, Human; conditions: CEM cells pretreated 16 h, then 5 mM DEM 120 min, 250 nM TMRM; FIG. 3 and 4
Protocol: FIG. 3. Representative flow cytometric two-dimensional color density dot plot analyses of mitochondrial membrane potential (ΔΨm) in leukemia CEM cells stained with 250 nM TMRM and analyzed using FL2-H channel as described in the experimental section. The percentage of cells with intact ΔΨm is indicated in the top right quadrant of captions. Representative example from at least three independent experiments. A total of 10000 events were recorded for each sample and analyzed with the CellQuest software (BD Biosciences).
FIG. 4. A bar graph representation of means the percentage of cells with intact ΔΨm recorded by FACS. Data are expressed as means±SEM of three independent experiments run in duplicate.
Measurement of Mitochondrial Membrane Potential (Δψm) (FACS). For the determination of Δψm, CEM leukemia cells were pre-treated with or without the test compounds for 16 h. The cells were treated with 5 mM DEM for 120 minutes, collected by centrifugation at 300×g for 3 minutes and then washed twice with phosphate buffered saline. The cells were re-suspended in HSSB buffer and incubated at 37° C. in the dark for 15 minutes with 250 nM TMRM (a cationic dye which accumulates within mitochondria in accordance with the Δψm Nernst potential). Cells were collected by centrifugation at 300×g for 3 minutes and then washed twice with phosphate buffered saline. The samples were analyzed immediately by flow cytometry using 488 nm excitation laser and the FL2-H channel. The results obtained were verified in three independent experiments. The protonophore FCCP (10 μM) was used to dissipate the chemiosmotic proton gradient […] and served as a control for loss of Δψm. […] The results were verified by repeating the experiments in duplicate.

In the case of COC1=C(OC)C(=O)C(C/C=C(\C)CC/C=C(\C)CC/C=C(\C)CC/C=C(\C)CC/C=C(\C)CC/C=C(\C)CC/C=C(\C)CC/C=C(\C)CC/C=C(\C)CCC=C(C)C)=C(C)C1=O [coenzyme Q10], the “calculated octanol-water partition coefficient” value [1] is listed as > 10^20.

Work on CCCCCCCCCCCCCCCCc1cc(C)c2c(n1)N(C)CC2 [Example 10, 1,4-Dimethyl-6-hexadecyl-2,3-dihydro-1H-pyrrolo[2,3-b]pyridine] yielded a melting point of 43 to 45 °C.

With Cc1c(C)c2c(c(C)c1O)CC[C@@](C)(CCC[C@H](C)CCC[C@H](C)CCCC(C)C)O2 [α-tocopherol, reference compound] the “cytoprotection (cell viability, trypan blue exclusion)” value (“cytoprotection” for short) (CEM cells [2]) was “significantly reduced cell death”.

In the case of CCCCCCCCCCc1nc2c(c(C)c1O)CCN2C [Compound 1b, 1,4-Dimethyl-6-decyl-2,3-dihydro-1H-pyrrolo[2,3-b]pyridin-5-ol trifluoro acetic acid salt], the “intensity of DCF fluorescence” value (CEM cells [3]) is reported as “significant decrease in the intensity of DCF fluorescence in a dose-dependent manner”, the “protection against ROS production (DCF fluorescence)” value (shortened to “protection against ROS production”) (CEM cells [3]) is reported as “significantly better protection than α-tocopherol” and the “protection against lipid (membrane) peroxidation (C11-BODIPY-green fluorescence)” value (“protection against lipid” for short) (CEM leukemia cells [4]) is reported as “significantly better protection than was achieved with α-tocopherol”. For the same compound, the “prevention of loss of Δψm (mitochondrial depolarization)” value (from here on “prevention of loss of Δψm”) (CEM leukemia cells [5]) was “the most effective in preventing mitochondrial depolarization” and the “cytoprotection” value (CEM cells [2]) was “more effective in cytoprotection than was α-TOH”.

For CCCCCCCCCCc1nc2c(c(C)c1OC(C)=O)CCN2C [Compound 2b, 1,4-Dimethyl-6-decyl-2,3-dihydro-1H-pyrrolo[2,3-b]pyridin-5-yl acetate], the “intensity of DCF fluorescence” value (CEM cells [3]) was “significant decrease in the intensity of DCF fluorescence in a dose-dependent manner”, the “protection against ROS production” value (CEM cells [3]) was “significantly better protection than α-tocopherol” and the “protection against lipid” value (CEM leukemia cells [4]) was “results comparable to α-TOH”. For the same compound, the “prevention of loss of Δψm” value (CEM leukemia cells [5]) was “the most effective in preventing mitochondrial depolarization” and the “cytoprotection” value (CEM cells [2]) was “more effective in cytoprotection than was α-TOH”.

For CCCCCCCCCCCCCCCCc1nc2c(c(C)c1O)CCN2C [Compound 1c, 1,4-Dimethyl-6-hexadecyl-2,3-dihydro-1H-pyrrolo[2,3-b]pyridin-5-ol trifluoroacetic acid salt], the “protection against ROS production” value (CEM cells [3]) was “intermediate protection”, the “protection against lipid” value (CEM leukemia cells [4]) was “Reduced protection” and the “prevention of loss of Δψm” value (CEM leukemia cells [5]) was “less effective in preventing mitochondrial depolarization”.

For CCCCCc1nc2c(c(C)c1OC(C)=O)CCN2C [Compound 2a, 1,4-Dimethyl-6-pentyl-2,3-dihydro-1H-pyrrolo[2,3-b]pyridin-5-yl acetate], the “protection against ROS production” value (CEM cells [3]) was “reduced protection”, the “protection against lipid” value (CEM leukemia cells [4]) was “no protection” and the “prevention of loss of Δψm” value (CEM leukemia cells [5]) was “less effective in preventing mitochondrial depolarization”.

For CCCCCCCCCCCCCCCCc1nc2c(c(C)c1OC(C)=O)CCN2C [Compound 2c, 1,4-Dimethyl-6-hexadecyl-2,3-dihydro-1H-pyrrolo[2,3-b]pyridin-5-yl acetate], the “protection against ROS production” value (CEM cells [3]) was “intermediate protection”, the “protection against lipid” value (CEM leukemia cells [4]) was “Reduced protection” and the “prevention of loss of Δψm” value (CEM leukemia cells [5]) was “less effective in preventing mitochondrial depolarization”.

With CCCCCc1nc2c(c(C)c1O)CCN2C [Compound 1a, 1,4-Dimethyl-6-pentyl-2,3-dihydro-1H-pyrrolo[2,3-b]pyridin-5-ol trifluoroacetic acid salt] the “protection against ROS production” value (CEM cells [3]) was “reduced protection”, the “protection against lipid” value (CEM leukemia cells [4]) was “no protection” and the “prevention of loss of Δψm” value (CEM leukemia cells [5]) was “less effective in preventing mitochondrial depolarization”.
